Laboratory results reported in patent publication US20220105053A1, “PHARMACEUTICAL COMPOSITION FOR PREVENTION OR TREATMENT OF ACIDOSIS” (HAIM BIO CO., LTD., priority 2018, published 2022).

These compounds were tested on A549 cancer cells (assay: Lactic acid concentration-decreasing effect in A549 cell culture (lactate assay, luminescence, normalised to cell number)). Conditions: 50 μM candidate substance, 24 hours, compared with the positive control (50 μM sodium oxamate), average of 3 experiments.
Format: cell-based, human
Experimental: To this end, first, A549 cancer cells (adenocarcinomic human alveolar basal epithelial cells, Cat #CCL-185) obtained from the American Type Culture Collection (ATCC) were cultured in RPMI 1640 culture medium containing 10% fetal bovine serum and 1% antibiotic-antimycotic agent under an environment at 37° C. and 5% CO2, and passages were performed every 3 days. Lactic acid is produced in large amounts when glycolysis is activated in hypoxia. Cancer cells, which are densely packed with cells, are very active in energy-consuming activities, and thus are known to produce lactic acid in large amounts.
The cells were seeded in 24-well plates at a concentration of 3×10^5 cells/well, and incubation was performed overnight. Then, each plate was treated with each of the candidate substances (at a concentration of 50 μM) as shown in Table 1 which had been dissolved in dimethyl sulfoxide (DMSO). Incubation was further performed for 24 hours. For the negative control for the candidate substances, no treatment was performed; and for the positive control, treatment with sodium oxamate, which is conventionally known as a therapeutic agent for lactic acidosis, was performed at the same concentration (50 μM) or the […] higher concentration (50 mM). Subsequently, 50 μl of the cell culture solution obtained by being diluted with Dulbecco's Phosphate-Buffered Saline (DPBS), and 50 μl of the lactate assay reaction buffer (Promega, Madison, Wis., USA) were mixed and the mixture was added in a 96-well plate. Reaction was allowed to proceed at room temperature for 1 hour. Then, luminescence was measured with a spectrophotometer (Synergy HTX Multi-Reader, BioTek). At the same time, the number of cells in each sample was measured with a cell viability analysis kit (Cell Counting Kit-8), and calculation was performed so that the lactic acid measurement value in each sample could be compared with that in the negative control for the same number of cells.

SMILES | lactic acid concentration-decreasing effect
Nc1c(O)cccc1C(=O)CC(N)C(=O)O (racemic) [3-hydroxy-DL-kynurenine, 3-Hydroxy-DL-kynurenine] | about 20%
C=C(OP(=O)([O-])O)C(=O)O.O.[Na+] [Phospho(enol)pyruvic acid monosodium salt hydrate] | about 15%
N.N.[Cl][Pt][Cl] [cis-diamminedichloridoplatinum, Cis-diamminedichloridoplatinum] | about 15%
CCN(CC)c1ccc(C=O)cc1 [diethylaminobenzaldehyde, Diethylaminobenzaldehyde] | about 20%
